This note sets out measurements from ChEMBL document CHEMBL6134907, “Synthesis of 5,9- and 5,8-Diaminoalkoxy Substituted Benzophenanthridinone Analogues as Tyrosyl-DNA Phosphodiesterase 1 Inhibitors and Their Radiosensitizing Activity” (J Med Chem, 2025).

Calls of active or inactive are those of the source. The rule behind the calls is not given here.

In series [1] the test system is HCT-116. Nature of the series: Induction of cell cycle arrest in human HCT-116 cells assessed as accumulation of cells at G2/M phase at 5 uM measured after 24 hrs by Propidium iodide (PI) staining based assay (reference value: 15.77%). In kind it is functional.
The nature of series [2]: Oral bioavailability in male Sprague-Dawley rat at 5 mg/kg measured up to 24 hrs by LCMS-MS analysis. Format: ADME, organism-based. The note with it: in vivo.
Series [3] in a line: Toxicity in BALB/c mouse xenografted with human HCT-116 cells assessed as change in heart weight at 1 to 10 mg/kg, ip every day for 14 days. Format: organism-based. To be noted: in vivo, 336 h, dose 1-10 mg/kg, time 14 day. In general terms: In xenograft studies the graft and the host belong to different species.
The test system of series [4] is HCT-116. The series can be described thus: Induction of cell cycle arrest in human HCT-116 cells assessed as accumulation of cells at S phase at 10 uM measured after 24 hrs by Propidium iodide (PI) staining based assay (reference value: 13.96%). In kind it is functional.
A short description of series [5]: Toxicity in BALB/c mouse xenografted with human HCT-116 cells assessed as change in liver weight at 1 to 10 mg/kg, ip every day for 14 days. Format: organism-based. The note with it: in vivo, 336 h, dose 1-10 mg/kg, time 14 day.
Series [6] deals with HCT-116. The series can be described thus: Effect on Lig4 expression in wild type human HCT-116 cells assessed as change in protein level at 5 to 10 uM measured after 24 hrs by Western blot analysis. Format: functional, cell-based. To be noted: dose 5-10 µM. A general note: Immunoblotting shows a protein as a band on a membrane.

For orientation: bioavailability means the share of a dose that reaches the circulation, judged against a reference dose that is usually intravenous.

With `COc1cc2c(=O)n(CCN(C)C)c3c4cc5c(cc4ccc3c2cc1OCCN1CCOCC1)OCO5`, the Activity in series [1] was 18.4%; in series [3], “Non-toxic”; in series [4], 10.2%; in series [5], “Non-toxic”. In series [2], this compound yielded a bioavailability of 63.1%. For the same compound, in series [6], the outcome was inactive.
